From patent US7794712B2, “Production of mutant strain of Aspergillus fumigatus, method of assay for inhibiting siderophore biosynthesis and diagnostic method for detecting likely Aspergillus fumigatus infection” (priority 2004, dated 2010)
Several values for one entry are separate records, joined by “and”; a condition that tells them apart may be missing. Identical values can stand only once.

Legend:
A. fumigatus 13073 [1] = assay: Growth scored by A600 in 96-well plates with or without iron; assay type: cell-based, Aspergillus fumigatus; conditions: 48 hours
Experimental: Siderophore production and growth was scored by using one antibiotic (amphotericin B) with two types of media (Neilands' with and without citrate), using the same spore concentrations as given above, but a shorter incubation time. Generally, this portion of the assay would be carried out when there was a potential inhibitor which scored positively in the first round of screening. Growth is scored with and without iron in the media.
(§1) Three identical plates were set up: one filter plate and two sterile clear 96-well plates. The clear plates were used to score growth, and the filter plate was used to detect siderophores. Columns 1-6 contained Neilands' medium without citrate and amphotericin 0-2 at g/ml. Columns 7-12 contained Neilands' medium with citrate and amphotericin at […]. The rows were set up with A. fumigatus as described above, but two sets of each were set up to be in the two plates. The spores from the previous experiment were stored at −20° C. in PBS, in siliconized tubes, at 2×10^8 conidia/ml, to facilitate these experiments. Plates were incubated for 48 hours at 37° C. without shaking.
(§2) The filter plate was centrifuged at 1000×g for 10 minutes and the liquids caught in a clear non-sterile plate, to which FeCl3 was added. The plate was allowed to sit and develop orange colour, and was then read at 440 nm. The clear plates (one without Fe and one with Fe added to growth medium from the beginning) were read at 600 nm (A600). In the result, iron enhanced conidiation. Some wells of the filter plate were lightly conidiated and would not drain. These were hand pipetted.

invasive aspergillosis = conditions: with prophylaxis and treatment; cited from earlier work
A. fumigatus 13073 [2] = assay: Siderophore secretion inhibitor assay (A440 after FeCl3 addition); assay type: cell-based, Aspergillus fumigatus; conditions: for A440 (ferrated siderophores): 3 days; for Siderophore production as measured by A440: Neilands' medium without citrate, 48 hours
Source text: In this example 96-well sterile polystyrene filter plates as described above with white Duropore membranes at the base of the plate (Millipore) were used. The plates include a thick plastic layer under the wells, which has a one-way valve function that directs fluid into a receiving 96-well plate when the filter plate is subjected to a vacuum manifold or a centrifugal force. This layer can be peeled off if the membranes are to be sampled (punched) later.
Cultures were set up in the filter plates, with controls and inhibitors to be tested. After inclubation, culture fluid was pulled into a 96-well receiver plate, using the Beckman centrifuge and a JS 5.3 rotor designed to take 96-well plates. FeCl3 was added to the receiver plates, and A430 (general siderophores) or A440 (max for TAF) was read. Growth was scored in the plate by reading A600.
To test this method, different antibiotics were used to show inhibition of siderophore production by A. fumigatus 13073, as no inhibitors for the SidA gene product are currently known. Suitable ranges of concentrations of amphotericin B (fungizone), hygromycin, and nystatin were calculated based on the literature. Spores were harvested from A. fumigatus 13073 into PBS Tween, then washed once with PBS and counted. They were then diluted into Neilands' medium (without citrate) to give solutions of 2×10^5 and 2×10^6/ml. 100 μl of 2× spores and 100 μl of 2× antibiotics to yield a volume of 200 μl of Neilands' medium in each well, with the desired final concentrations of spores, 10^5 or 10^6/ml.
Antibiotics were prepared as follows. Amphotericin B came as a liquid solution, 250 µg/ml. […] Therefore 0, 0.125, 0.25, 0.5, 1 and […] final concentration was used. Nystatin was stored it in ˜1 mg dry aliquots at −20 C, and was prepared at a concentration of 2 mg/ml in DMSO for dilution into Neilands' media. According to reported information, nystatin should be effective at 1.5 to 6.5 µg/ml; therefore, 0, 0.5, 1, 5, 10 and 50 µg/ml were used as the final concentrations. Hygromycin gold stock was in solution at 100 mg/ml, and 0, 25, 50, 100, 150 and 200 µg/ml were used as the final concentrations in Neilands' medium. Plates were incubated for 3 days at 37° C. with shaking.
To test for siderophores, 20 μL of a solution of 2 mM FeCl3 in 10 mM HCl was added to each well in the receiver plates and the A440 was recorded on a plate reader. […] An increase in A440 indicates a more intense orange-red colour that develops in the presence of ferrated siderophores. […] Because 3-day incubation produces conidia, shorter incubation periods may be preferable.
as §1, §2

Q: For `C[C@@H]1[C@H](O)[C@@H](C)/C=C/C=C/C=C/C=C/C=C/C=C/C=C/[C@H](O[C@@H]2O[C@H](C)[C@@H](O)[C@H](N)[C@@H]2O)C[C@@H]2O[C@](O)(C[C@@H](O)C[C@@H](O)[C@H](O)CC[C@@H](O)C[C@@H](O)CC(=O)O[C@H]1C)C[C@H](O)[C@H]2C(=O)O` [amphotericin B], which “Effect of iron on growth inhibition” value (A. fumigatus 13073 [1]; Neilands' medium with vs without Fe) is on record?
A: addition of iron did not change the pattern of growth inhibition

Q: What about the “Growth as measured by A600” value (A. fumigatus 13073 [1]; amphotericin B 0.13 μg/ml, 1000000 spores/ml, Neilands' medium without citrate or Fe) of the same molecule?
A: 0.137 and 0.113 and 0.168

Q: What about the “Growth as measured by A600” value (A. fumigatus 13073 [1]; amphotericin B 0.13 μg/ml, 1000000 spores/ml, Neilands' medium without citrate with Fe) of the same molecule?
A: 0.139 and 0.113 and 0.169

Q: What about the “Growth as measured by A600” value (A. fumigatus 13073 [1]; amphotericin B 0.25 μg/ml, 100000 spores/ml, Neilands' medium without citrate or Fe) of the same molecule?
A: 0.068 and 0.083 and 0.076

Q: And the “Growth as measured by A600” value (A. fumigatus 13073 [1]; amphotericin B 0.25 μg/ml, 100000 spores/ml, Neilands' medium without citrate with Fe)?
A: 0.067 and 0.091 and 0.076

Q: And the “Growth as measured by A600” value (A. fumigatus 13073 [1]; amphotericin B 0.25 μg/ml, 1000000 spores/ml, Neilands' medium without citrate or Fe)?
A: 0.111 and 0.126 and 0.157

Q: And the “Growth as measured by A600” value (A. fumigatus 13073 [1]; amphotericin B 0.25 μg/ml, 1000000 spores/ml, Neilands' medium without citrate with Fe)?
A: 0.11 and 0.126 and 0.157

Q: What about the “Growth as measured by A600” value (A. fumigatus 13073 [1]; amphotericin B 0.50 μg/ml, 100000 spores/ml, Neilands' medium without citrate or Fe) of the same molecule?
A: 0.035

Q: What about the “Growth as measured by A600” value (A. fumigatus 13073 [1]; amphotericin B 0.5 μg/ml, 100000 spores/ml, Neilands' medium without citrate with Fe) of the same molecule?
A: 0.035 and 0.034

Q: And the “Growth as measured by A600” value (A. fumigatus 13073 [1]; amphotericin B 0.50 μg/ml, 1000000 spores/ml, Neilands' medium without citrate or Fe)?
A: 0.038 and 0.039 and 0.037

Q: And the “Growth as measured by A600” value (A. fumigatus 13073 [1]; amphotericin B 0.5 μg/ml, 1000000 spores/ml, Neilands' medium without citrate with Fe)?
A: 0.038 and 0.039

Q: And the “Growth as measured by A600” value (A. fumigatus 13073 [1]; amphotericin B 1 μg/ml, 100000 spores/ml, Neilands' medium without citrate or Fe)?
A: 0.035 and 0.036

Q: What about the “Growth as measured by A600” value (A. fumigatus 13073 [1]; amphotericin B 1 μg/ml, 100000 spores/ml, Neilands' medium without citrate with Fe) of the same molecule?
A: 0.035

Q: What about the “Growth as measured by A600” value (A. fumigatus 13073 [1]; amphotericin B 1 μg/ml, 1000000 spores/ml, Neilands' medium without citrate or Fe) of the same molecule?
A: 0.039 and 0.038

Q: And the “Growth as measured by A600” value (A. fumigatus 13073 [1]; amphotericin B 1 μg/ml, 1000000 spores/ml, Neilands' medium without citrate with Fe)?
A: 0.039

Q: What about the “Growth as measured by A600” value (A. fumigatus 13073 [1]; amphotericin B 2 μg/ml, 100000 spores/ml, Neilands' medium without citrate or Fe) of the same molecule?
A: 0.035 and 0.036

Q: What about the “Growth as measured by A600” value (A. fumigatus 13073 [1]; amphotericin B 2 μg/ml, 100000 spores/ml, Neilands' medium without citrate with Fe) of the same molecule?
A: 0.035

Q: What about the “Growth as measured by A600” value (A. fumigatus 13073 [1]; amphotericin B 2 μg/ml, 1000000 spores/ml, Neilands' medium without citrate or Fe) of the same molecule?
A: 0.038 and 0.039

Q: What about the “Growth as measured by A600” value (A. fumigatus 13073 [1]; amphotericin B 2 μg/ml, 1000000 spores/ml, Neilands' medium without citrate with Fe) of the same molecule?
A: 0.038 and 0.039

Q: What about the “Mortality rate if the disease spreads to the central nervous system” value (invasive aspergillosis) of the same molecule?
A: ~100%

Q: What about the “Mortality rate, pulmonary aspergillosis” value (invasive aspergillosis) of the same molecule?
A: 65%

Q: And the “A440 (ferrated siderophores)” value (A. fumigatus 13073 [2]; amphotericin B 0.13 μg/ml, 1.00E+05 spores/ml)?
A: 0.178 and 0.156 and 0.145

Q: What about the “A440 (ferrated siderophores)” value (A. fumigatus 13073 [2]; amphotericin B 0.13 μg/ml, 1.00E+06 spores/ml) of the same molecule?
A: 0.211 and 0.200

Q: What about the “Siderophore production as measured by A440” value (shortened to “Siderophore production”) (A. fumigatus 13073 [2]; amphotericin B 0.13 μg/ml, 100000 spores/ml) of the same molecule?
A: 0.047 and 0.042

Q: What about the “A440 (ferrated siderophores)” value (A. fumigatus 13073 [2]; amphotericin B 0.25 μg/ml, 1.00E+05 spores/ml) of the same molecule?
A: 0.038 and 0.039 and 0.040

Q: What about the “A440 (ferrated siderophores)” value (A. fumigatus 13073 [2]; amphotericin B 0.25 μg/ml, 1.00E+06 spores/ml) of the same molecule?
A: 0.085 and 0.168 and 0.130

Q: What about the “Siderophore production” value (A. fumigatus 13073 [2]; amphotericin B 0.25 μg/ml, 100000 spores/ml) of the same molecule?
A: 0.044 and 0.043

Q: And the “Siderophore production” value (A. fumigatus 13073 [2]; amphotericin B 0.25 μg/ml, 1000000 spores/ml)?
A: 0.047 and 0.046 and 0.048

Q: What about the “A440 (ferrated siderophores)” value (A. fumigatus 13073 [2]; amphotericin B 0.50 μg/ml, 1.00E+05 spores/ml) of the same molecule?
A: 0.042 and 0.040 and 0.039

Q: What about the “A440 (ferrated siderophores)” value (A. fumigatus 13073 [2]; amphotericin B 0.50 μg/ml, 1.00E+06 spores/ml) of the same molecule?
A: 0.038 and 0.042 and 0.035

Q: And the “Siderophore production” value (A. fumigatus 13073 [2]; amphotericin B 0.50 μg/ml, 100000 spores/ml)?
A: 0.042 and 0.043 and 0.046

Q: What about the “Siderophore production” value (A. fumigatus 13073 [2]; amphotericin B 0.50 μg/ml, 1000000 spores/ml) of the same molecule?
A: 0.043 and 0.042

Q: What about the “A440 (ferrated siderophores)” value (A. fumigatus 13073 [2]; amphotericin B 1.00 μg/ml, 1.00E+05 spores/ml) of the same molecule?
A: 0.032 and 0.039 and 0.036

Q: What about the “Siderophore production” value (A. fumigatus 13073 [2]; amphotericin B 1 μg/ml, 100000 spores/ml) of the same molecule?
A: 0.042 and 0.041 and 0.045

Q: What about the “Siderophore production” value (A. fumigatus 13073 [2]; amphotericin B 1 μg/ml, 1000000 spores/ml) of the same molecule?
A: 0.05 and 0.047

Q: What about the “A440 (ferrated siderophores)” value (A. fumigatus 13073 [2]; amphotericin B 2.00 μg/ml, 1.00E+05 spores/ml) of the same molecule?
A: 0.041 and 0.034

Q: And the “A440 (ferrated siderophores)” value (A. fumigatus 13073 [2]; amphotericin B 2.00 μg/ml, 1.00E+06 spores/ml)?
A: 0.036 and 0.034

Q: And the “Siderophore production” value (A. fumigatus 13073 [2]; amphotericin B 2 μg/ml, 100000 spores/ml)?
A: 0.045

Q: What about the “Siderophore production” value (A. fumigatus 13073 [2]; amphotericin B 2 μg/ml, 1000000 spores/ml) of the same molecule?
A: 0.044 and 0.043 and 0.045
